# Data: patent US20070161637A1, “Substituted pyridin-2-ylamine analogues” (Neurogen Corporation, priority 2003, published 2007)
# pIC50: −log10 of the molar value.
# Target: T1, human capsaicin receptor (Homo sapiens, UniProt Q8NER1)
# T1 construct: transfected with the pBK-CMV expression construct encoding the full length human capsaicin receptor; expressed in transfected cells; host or cells: HEK293, stably transfected clonal lines, plasmid pBK-CMV
# Experiment: Calcium mobilization assay, determination of antagonist activity (Example 6)
# Type: cell-based
# Details: concentration giving 50% decrease in the fluorescence response of cells expressing human capsaicin receptor exposed to capsaicin
# Procedure: A cDNA encoding full length human capsaicin receptor (SEQ ID NO:1, 2 or 3 of U.S. Pat. No. 6,482,611) was subcloned in the plasmid pBK-CMV (Stratagene, La Jolla, Calif.) for recombinant expression in mammalian cells.
# Human embryonic kidney (HEK293) cells were transfected with the pBK-CMV expression construct encoding the full length human capsaicin receptor using standard methods. The transfected cells were selected for two weeks in media containing G418 (400 μg/ml) to obtain a pool of stably transfected cells. Independent clones were isolated from this pool by limiting dilution to obtain clonal stable cell lines for use in subsequent experiments.
# Cells transfected with expression plasmids (as described in Example 4) and thereby expressing human capsaicin receptor are seeded and grown to 70-90% confluency in FALCON black-walled, clear-bottomed 96-well plates (#3904, BECTON-DICKINSON, Franklin Lakes, N.J.). The culture medium is emptied from the 96 well plates and FLUO-3 AM calcium sensitive dye (Molecular Probes, Eugene, Oreg.) is added to each well (dye solution: 1 mg FLUO-3 AM, 440 μL DMSO and 440 μl 20% pluronic acid in DMSO, diluted 1:250 in Krebs-Ringer HEPES (KRH) buffer (25 mM HEPES, 5 mM KCl, 0.96 mM NaH2PO4, 1 mM MgSO4, 2 mM CaCl2, 5 mM glucose, 1 mM probenecid, pH 7.4), 50 μl diluted solution per well). Plates are covered with aluminum foil and incubated at 37° C. for 1-2 hours in an environment containing 5% CO2. After the incubation, the dye is emptied from the plates, and the cells are washed once with KRH buffer, and resuspended in KRH buffer.
# To measure the ability of a test compound to agonize or antagonize a calcium mobilization response in cells expressing capsaicin receptors to capsaicin or other vanilloid agonist, the EC50 of the agonist capsaicin is first determined. An additional 20 μl of KRH buffer and 1 μl DMSO is added to each well of cells, prepared as described above. 100 μl capsaicin in KRH buffer is automatically transferred by the FLIPR instrument to each well. Capsaicin-induced calcium mobilization is monitored using either FLUOROSKAN ASCENT (Labsystems; Franklin, Mass.) or FLIPR (fluorometric imaging plate reader system; Molecular Devices, Sunnyvale, Calif.) instruments. Data obtained between 30 and 60 seconds after agonist application are used to generate an 8-point concentration response curve, with final capsaicin concentrations of 1 nM to 3 μM. […] software (Synergy Software, Reading, Pa.) is used to fit the data to the equation: y=a*(1/(1+(b/x)^c)) to determine the 50% excitatory concentration (EC50) for the response. In this equation, y is the maximum fluorescence signal, x is the concentration of the agonist or antagonist (in this case, capsaicin), a is the Emax, b corresponds to the EC50 value and c is the Hill coefficient. Determination Agonist Activity
# Test compounds are dissolved in DMSO, diluted in 20 μl KRH buffer so that the final concentration of test compounds in the assay well is between 1 μM and 5 μM, and added to cells prepared as described above. The 96 well plates containing prepared cells and test compounds are incubated in the dark, at room temperature for 0.5 to 6 hours. It is important that the incubation not continue beyond 6 hours. Just prior to determining the fluorescence response, 100 μl capsaicin in KRH buffer at twice the EC50 concentration determined as described above is automatically added by the FLIPR instrument to each well of the 96 well plate for a final sample volume of 200 μl and a final capsaicin concentration equal to the EC50. The final concentration of test compounds in the assay wells is between 1 μM and 5 μM.
# T1 sequence (Q8NER1 whole entry): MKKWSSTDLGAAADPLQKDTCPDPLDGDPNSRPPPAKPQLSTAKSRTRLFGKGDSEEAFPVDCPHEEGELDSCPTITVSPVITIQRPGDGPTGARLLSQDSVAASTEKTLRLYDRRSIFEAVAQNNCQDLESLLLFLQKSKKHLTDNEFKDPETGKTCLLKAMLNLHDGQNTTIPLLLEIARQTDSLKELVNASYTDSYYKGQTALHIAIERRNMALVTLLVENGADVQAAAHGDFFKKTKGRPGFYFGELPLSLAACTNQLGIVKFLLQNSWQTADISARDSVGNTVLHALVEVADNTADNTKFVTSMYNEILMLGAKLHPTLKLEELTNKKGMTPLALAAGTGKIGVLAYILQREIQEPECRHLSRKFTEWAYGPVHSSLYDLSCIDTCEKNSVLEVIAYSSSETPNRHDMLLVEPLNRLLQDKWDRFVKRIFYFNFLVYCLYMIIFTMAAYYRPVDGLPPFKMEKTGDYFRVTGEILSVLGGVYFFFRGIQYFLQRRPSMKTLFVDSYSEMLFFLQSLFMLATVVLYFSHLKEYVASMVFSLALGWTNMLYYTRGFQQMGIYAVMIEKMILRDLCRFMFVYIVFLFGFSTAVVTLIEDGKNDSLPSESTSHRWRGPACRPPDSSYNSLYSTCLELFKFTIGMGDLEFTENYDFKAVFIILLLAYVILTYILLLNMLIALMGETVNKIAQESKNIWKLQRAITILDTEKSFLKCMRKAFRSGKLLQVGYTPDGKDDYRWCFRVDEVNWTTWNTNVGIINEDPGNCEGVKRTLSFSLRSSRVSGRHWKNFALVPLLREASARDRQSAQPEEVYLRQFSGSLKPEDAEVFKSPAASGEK
row,pIC50,SMILES
1,≥ 6.00,"CC(C)(C)c1ccc(Nc2cc(OCc3ccccc3C(F)(F)F)nc(N)n2)cc1 [Compound 60, N4-(4-tert-Butyl-phenyl)-6-(2-trilfuoromethyl-benzyloxy)-pyrimidine-2,4-diamine]"
2,≥ 6.00,"CC(C)(C)c1ccc(Nc2cc(NCc3ccccc3Cl)ncn2)cc1 [Compound 42, N-(4-tert-Butyl-phenyl)-N′-(2-chloro-benzyl)-pyrimidine-4,6-diamine]"
3,≥ 6.00,"CC(C)(C)c1ccc(Nc2cc(NCc3ccncc3)ncn2)cc1 [Compound 58, N-(4-tert-Butyl-phenyl)-N′-pyridin-4-ylmethyl-pyrimidine-4,6-diamine]"
4,≥ 6.00,"CC(C)(C)c1ccc(Nc2cc(NCc3ccccc3F)ncn2)cc1 [Compound 44, N-(4-tert-Butyl-phenyl)-N′-(2-fluoro-benzyl)-pyrimidine-4,6-diamine]"
5,≥ 6.00,"FC(F)(F)c1ccc(Nc2nc(OCc3ccccc3C(F)(F)F)nc(OC3CCCC3)n2)cc1 [Compound 19, [4-Cyclopentyloxy-6-(2-trifluoromethyl-benzyloxy)-[1,3,5]triazin-2-yl]-(4-trifluoromethyl-phenyl)-amine]"
6,≥ 6.00,"CC(C)(C)c1ccc(Nc2cc(NCc3ccccc3)ncn2)cc1 [Compound 61, N-Benzyl-N′-(4-tert-butyl-phenyl)-pyrimidine-4,6-diamine]"
7,≥ 6.00,"CC(C)CNc1nc(Nc2ccc(C(F)(F)F)cc2)nc(OCc2ccccc2C(F)(F)F)n1 [Compound 66, N-Isobutyl-6-(2-trifluoromethyl-benzyloxy)-N′-(4-trifluoromethyl-phenyl)-[1,3,5]triazine-2,4-diamine]"
8,≥ 6.00,"CC(C)(C)c1ccc(Nc2cc(NCc3ccccc3C(F)(F)F)ncn2)cc1 [Compound 49, N-(4-tert-Butyl-phenyl)-N′-(2-trifluoromethyl-benzyl)-pyrimidine-4,6-diamine]"
9,≥ 6.00,"COc1ccccc1CNc1ncnc(Nc2ccc(C(C)(C)C)cc2)n1 [Compound 45, N-(4-tert-Butyl-phenyl)-N′-(2-methoxy-benzyl)-[1,3,5]triazine-2,4-diamine]"
10,≥ 6.00,"CC(C)(C)c1ccc(Nc2nc(N)nc(NCc3ccccc3Cl)n2)cc1 [Compound 37, N-(4-tert-Butyl-phenyl)-N′-(2-chloro-benzyl)-[1,3,5]triazine-2,4,6-triamine]"
11,≥ 6.00,"COc1ccccc1COc1nc(N)nc(Nc2ccc(C(C)(C)C)cc2)n1 [Compound 32, N-(4-tert-Butyl-phenyl)-6-(2-methoxy-benzyloxy)-[1,3,5]triazine-2,4-diamine]"
12,≥ 6.00,"CC(C)(C)c1ccc(Nc2nc(OCc3ccccc3F)nc(OCc3ccccc3F)n2)cc1 [Compound 12, [4,6-Bis-(2-fluoro-benzyloxy)-[1,3,5]triazin-2-yl]-(4-tert-butyl-phenyl)-amine]"
13,≥ 6.00,"COc1cc2c(cc1OC)CN(c1nc(Cl)nc(Nc3ccc(C(C)(C)C)cc3)n1)CC2 [Compound 6, (4-tert-Butyl-phenyl)-[4-chloro-6-(6,7-dimethoxy-3,4-dihydro-1H-isoquinolin-2-yl)-[1,3,5]triazin-2-yl]-amine]"
14,≥ 6.00,"COc1ccccc1CNc1nc(N)nc(Nc2ccc(C(C)(C)C)cc2)n1 [Compound 46, N-(4-tert-Butyl-phenyl)-N′-(2-methoxy-benzyl)-[1,3,5]triazine-2,4,6-triamine]"
15,≥ 6.00,"FC(F)(F)c1ccc(Nc2nc(OCc3ccccc3C(F)(F)F)nc(-c3ccccc3C(F)(F)F)n2)cc1 [Compound 10, [4-(2-Trifluoromethyl-benzyloxy)-6-(2-trifluoromethyl-phenyl)-[1,3,5]triazin-2-yl]-(4-trifluoromethyl-phenyl)-amine]"
16,≥ 6.00,"CCCCNc1nc(Nc2ccc(C(F)(F)F)cc2)nc(OCc2ccccc2C(F)(F)F)n1 [Compound 62, N-Butyl-6-(2-trifluoromethyl-benzyloxy)-N′-(4-trifluoromethyl-phenyl)-[1,3,5]triazine-2,4-diamine]"
17,≥ 6.00,"CC(C)CCNc1nc(Nc2ccc(C(F)(F)F)cc2)nc(OCc2ccccc2C(F)(F)F)n1 [Compound 29, N-(3-Methyl-butyl)-6-(2-trifluoromethyl-benzyloxy)-N′-(4-trifluoromethyl-phenyl)-[1,3,5]triazine-2,4-diamine]"
18,≥ 6.00,"CN1CCN(c2nc(Nc3ccc(C(C)(C)C)cc3)nc(OCc3ccccc3C(F)(F)F)n2)CC1 [Compound 1, (4-tert-Butyl-phenyl)-[4-(4-methyl-piperazin-1-yl)-6-(2-trifluoromethyl-benzyloxy)-[1,3,5]triazine-2-yl]-amine]"
19,≥ 6.00,"FC(F)(F)c1ccc(Nc2nc(NC3CCCC3)nc(OCc3ccccc3C(F)(F)F)n2)cc1 [Compound 65, N-Cyclopentyl-6-(2-trifluoromethyl-benzyloxy)-N′-(4-trifluoromethyl-phenyl)-[1,3,5]triazine-2,4-diamine]"
20,≥ 6.00,"FC(F)(F)c1ccc(Nc2nc(NC3CCCCC3)nc(OCc3ccccc3C(F)(F)F)n2)cc1 [Compound 64, N-Cyclohexyl-6-(2-trifluoromethyl-benzyloxy)-N′-(4-trifluoromethyl-phenyl)-[1,3,5]triazine-2,4-diamine]"
21,≥ 6.00,"CC(C)(C)c1ccc(Nc2nc(OCc3ccccc3Cl)nc(OCc3ccccc3Cl)n2)cc1 [Compound 11, [4,6-Bis-(2-chloro-benzyloxy)-[1,3,5]triazin-2-yl]-(4-tert-butyl-phenyl)-amine]"
22,≥ 6.00,"CC(C)(C)c1ccc(Nc2cc(OCc3ccccc3C(F)(F)F)ncn2)cc1 [Compound 8, (4-tert-Butyl-phenyl)-[6-(2-trifluoromethyl-benzyloxy)-pyrimidin-4-yl]-amine]"
23,≥ 6.00,"Oc1nc(Nc2ccc(C(F)(F)F)cc2)nc(OCc2ccccc2C(F)(F)F)n1 [Compound 25, 4-(2-Trifluoromethyl-benzyloxy)-6-(4-trifluoromethyl-phenylamino)-[1,3,5]triazin-2-ol]"
24,≥ 6.00,"CC(C)(C)c1ccc(Nc2nc(OCc3ccccn3)nc(OCc3ccccn3)n2)cc1 [Compound 17, [4,6-Bis-(pyridin-2-ylmethoxy)-[1,3,5]triazin-2-yl]-(4-tert-butyl-phenyl)-amine]"
25,≥ 6.00,"FC(F)(F)c1ccc(Nc2nc(OCc3ccccc3C(F)(F)F)nc(-c3ccccc3)n2)cc1 [Compound 22, [4-Phenyl-6-(2-trifluoromethyl-benzyloxy)-[1,3,5]triazin-2-yl]-(4-trifluoromethyl-phenyl)-amine]"
26,≥ 6.00,"CC(C)(C)c1ccc(Nc2nc(OCc3ccccc3C(F)(F)F)nc(OCc3ccccc3C(F)(F)F)n2)cc1 [Compound 14, [4,6-Bis-(2-trifluoromethyl-benzyloxy)-[1,3,5]triazin-2-yl]-(4-tert-butyl-phenyl)-amine]"
27,≥ 6.00,"COc1cccc(CNc2cc(Nc3ccc(C(C)(C)C)cc3)ncn2)c1 [Compound 51, N-(4-tert-Butyl-phenyl)-N′-(3-methoxy-benzyl)-pyrimidine-4,6-diamine]"
28,≥ 6.00,"CC(C)(C)c1ccc(Nc2nc(OCc3ncccc3Cl)nc(OCc3ncccc3Cl)n2)cc1 [Compound 16, [4,6-Bis-(3-chloro-pyridin-2-ylmethoxy)-[1,3,5]triazin-2-yl]-(4-tert-butyl-phenyl)-amine]"
29,≥ 6.00,"CCOc1nc(NCc2ccccc2Cl)nc(Nc2ccc(C(C)(C)C)cc2)n1 [Compound 38, N-(4-tert-Butyl-phenyl)-N′-(2-chloro-benzyl)-6-ethoxy-[1,3,5]triazine-2,4-diamine]"
30,≥ 6.00,"CC(C)(C)c1ccc(Nc2nc(N)nc(OCc3ccccc3Cl)n2)cc1 [Compound 30, N-(4-tert-Butyl-phenyl)-6-(2-chloro-benzyloxy)-[1,3,5]triazine-2,4-diamine]"
